Measured values as given in patent US11458153B2, “Drug delivery composition comprising a self-assembled gelator” (The Brigham and Women's Hospital, Inc., priority 2008, dated 2022).

Biological target: T1, lipase (Lipolase 100L, Type EX) (Thermomyces lanuginosus, UniProt O59952)
T1 construct: purchased Novozymes through Brenntag North America Lipolase 100L, Type EX
T1 sequence (O59952 23-291): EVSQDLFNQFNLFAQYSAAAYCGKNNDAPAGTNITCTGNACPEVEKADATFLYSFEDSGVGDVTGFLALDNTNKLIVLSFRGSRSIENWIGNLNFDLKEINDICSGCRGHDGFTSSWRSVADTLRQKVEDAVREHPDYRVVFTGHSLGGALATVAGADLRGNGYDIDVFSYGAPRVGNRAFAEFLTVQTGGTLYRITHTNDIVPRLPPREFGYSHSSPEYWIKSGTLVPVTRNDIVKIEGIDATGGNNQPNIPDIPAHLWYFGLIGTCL
Experiment: Enzyme-triggered hydrogel degradation and drug release
Type: in vitro ADME
Description: Encapsulation and release of curcumin was previously studied by the Ultra-Violet absorbance spectroscopy (λmax at 424 nm). Absorbance spectrum of modified Apn-7-COOH was similar to that of Apn (FIG. 6B). In this instance, enzyme-triggered single and multiple drug delivery has been carried out using two sets of hydrogel samples, i.e., hydrogels of Apn-7-COOH and Apn-8-Apn with and without curcumin. In the first set, lipase (Lipolase 100L, Type EX, lipase units 100 KLU/g) was added to the preformed hydrogel of Apn-7-COOH (2 wt %) and kept it at 37° C. which is lower than gel melting temperature. It was anticipated that lipase (esterase) would hydrolyze the ester bond of prodrug-based gelator (Apn-7-COOH) to release acetaminophen and dicarboxylic acid as the hydrogel degrades. As expected, after 48 hours the gel completely degraded and became a clear solution.
To test this further, and examine multiple (two) drugs delivery (FIGS. 6A-6E), curcumin was encapsulated in the hydrogel of Apn-7-COOH (2 wt %) and to that lipase was added and kept it at 37° C. Absorbance spectra were recorded on aliquots which were collected (after the addition of enzyme to the hydrogel) at regular intervals (FIG. 6C). […] The concentration of the enzyme used in these in vitro experiments is higher than physiological concentration of esterases (for example, physiological concentration of cholesterol esterase is 7 U/ml).
Increasing either concentration of enzyme or incubation temperature to 45° C. doubles the drug release rate, which was correlating with previous findings.
To analyze the gel degradation mechanism, another prodrug Apn-5-ether-COOH was synthesized (FIG. 2), where hydrocarbon chain (which is bearing terminal carboxylic acid) was connected to the acetaminophen through an ether bond (C—O—C) to prevent the esterolytic cleavage by lipase.

For CC(=O)Nc1ccc(OC(=O)CCCCCCC(=O)O)cc1 [Apn-7-COOH], the “time after which absorbance of released curcumin did not increase” value (curcumin released from degradation of hydrogel) was 24 h, the “time of first aliquots showing curcumin absorption maxima (425 nm)” value (curcumin-encapsulated hydrogel 2 wt %, lipase, 37° C.) was 4 h and the “burst release of curcumin” value (curcumin-encapsulated hydrogel 2 wt %, lipase, 37° C., absorbance maxima vs time) was “absence of burst release”. The “products found by thin-layer chromatography after gel degradation” value (hydrogel 2 wt %, lipase, 37° C., 48 hours) was “acetaminophen and α,ω-dicarboxylicacid were generated” and the “time after which the gel completely degraded” value (preformed hydrogel 2 wt %, lipase added, 37° C.) was 48 h.
